For data set [1] the following is noted: mouse, 10 mg/kg, oral vs IV dose-normalized plasma AUC.
Another data set is described as follows: in vivo. As to conditions: male, Balb, Nu/Nu, mouse, plasma, 10 mg/kg; for Vd / clearance: iv; for AUC / Cmax / half-life: po.
The test system of data set [2] is Capan-1 human pancreatic cancer tumors. The conditions noted are these: for T − C: time to reach 1 g.
The subject of data set [3] is BRCA mutations and breast, ovarian and prostate cancer. The conditions noted are these: 19 patients with BRCA mutations and breast, monotherapy; cited from earlier work.
[4] abbreviates: cpd. 1 100 mg/kg oral daily, days 1 to 14.
[5] abbreviates: temozolomide 50 mg/kg oral, days 3, 4, 5, 6, 7 and 8.

Results on 9 molecules are retold here after patent publication US9422243B2 (priority 2011, dated 2016).

The structures appear in SMILES notation. Where two headings read alike, the source gives them in different places.

Turning to `Cl.NCCOc1c(-c2ccc(Br)cc2)[nH]c(=O)c2c(F)c(F)ccc12` [Compound 12, 4-(2-Amino-ethoxy)-3-(4-bromo-phenyl)-7,8-difluoro-2H-isoquinolin-1-one hydrochloride], the “F on AUC” value in data set [1] came to 109%. Further, in “in vivo”, the Vd is 4.5 L/kg, the clearance came to 46.3 mL/min/kg, the AUC was 8.15 µM·h and the peak level (Cmax) was 3150 nM. In the data set “in vivo”, this molecule had a half-life of 1.77 h.
On to `Cl.NCCOc1c(-c2ccc(Cl)cc2)[nH]c(=O)c2cc(F)ccc12` [Compound 8, 4-(2-Amino-ethoxy)-3-(4-chloro-phenyl)-7-fluoro-2H-isoquinolin-1-one hydrochloride], for which the “F on AUC” value in data set [1] came out at 74%. In addition, in the data set “in vivo”, the Vd turned out to be 5.2 L/kg, the clearance is 28.2 mL/min/kg, the AUC came to 7.5 µM·h and the Cmax is 2850 nM. In the data set “in vivo”, this molecule showed a half-life of 3 h.
Turning to `Cl.NCCOc1c(-c2ccc(Br)cc2)[nH]c(=O)c2cc(F)ccc12` [Compound 1, 4-(2-Amino-ethoxy)-3-(4-bromo-phenyl)-7-fluoro-2H-isoquinolin-1-one hydrochloride], in data set [2] (setting [4]), the “BWL (%)” value is 3%, the “TGI (%)” value is 21%, the Toxicity is recorded as 0/7 and the “T − C” value is on record as 4 days. In addition, the “F on AUC” value in data set [1] stood at 107%. Further, in the data set “in vivo”, the Vd was determined as 3.6 L/kg, the clearance is 12 mL/min/kg, the area under the curve (AUC) turned out to be 27 µM·h and the Cmax stood at 6000 nM. The same molecule gave a half-life in “in vivo” of 3.9 h.
For `Cl.NCCOc1c(-c2ccc(N3CCOCC3)c(Br)c2)[nH]c(=O)c2cc(F)ccc12` [Compound 4, 4-(2-Amino-ethoxy)-3-(3-bromo-4-morpholin-4-yl-phenyl)-7-fluoro-2H-isoquinolin-1-one hydrochloride], the “F on AUC” value in data set [1] came out at 83%. Besides, in “in vivo”, the Vd is 7.8 L/kg, the clearance was 44.5 mL/min/kg, the AUC amounted to 5.6 µM·h and the Cmax amounted to 3000 nM. For the same molecule, the half-life in “in vivo” is 1.43 h.
As for `Cn1nnc2c(C(N)=O)ncn2c1=O` [temozolomide, reference compound], in data set [2] (setting [5]), the “BWL (%)” value came out at 2.5%, the “TGI (%)” value was found to be 13%, the Toxicity was 0/7 and the “T − C” value was determined as 1 days.
For `COc1ccc(-c2[nH]c(=O)c3cc(F)ccc3c2OCCN)cc1F.Cl` [Compound 21, 4-(2-Amino-ethoxy)-7-fluoro-3-(3-fluoro-4-methoxy-phenyl)-2H-isoquinolin-1-one hydrochloride], the “F on AUC” value in data set [1] amounted to 133%. In the data set “in vivo”, the Vd is 6.5 L/kg, the clearance was 45.4 mL/min/kg, the AUC turned out to be 10.5 µM·h and the Cmax came to 4600 nM. In “in vivo”, this molecule gave a half-life of 3.9 h.
`Cc1cc(-c2[nH]c(=O)c3cc(F)ccc3c2OCCN)ccc1Cl.Cl` [Compound 13, 4-(2-Amino-ethoxy)-3-(4-chloro-3-methyl-phenyl)-7-fluoro-2H-isoquinolin-1-one hydrochloride]: in data set [1], the “F on AUC” value was determined as 128%. In the data set “in vivo”, this molecule had a Vd of 5.7 L/kg, a clearance of 45 mL/min/kg, an AUC of 10 µM·h and a Cmax of 2000 nM. Besides, the half-life in the data set “in vivo” was 3 h.
For `O=C(c1cc(Cc2n[nH]c(=O)c3ccccc23)ccc1F)N1CCN(C(=O)C2CC2)CC1` [Olaparib], the objective response rate in data set [3] is listed as 47%.
Consider `NCCOc1c(-c2ccc(Cl)c(Cl)c2)[nH]c(=O)c2cc(F)ccc12` [Compound 14, 4-(2-Amino-ethoxy)-3-(3,4-dichloro-phenyl)-7-fluoro-2H-isoquinolin-1-one], for which the “F on AUC” value in data set [1] came out at 136%. In “in vivo”, this molecule came in with a Vd of 4.2 L/kg, a clearance of 20.5 mL/min/kg, an AUC of 20.3 µM·h and a Cmax of 2800 nM. The molecule also had a half-life in the data set “in vivo” of 3.5 h.

The term Vd denotes a proportionality between amount in the body and measured concentration, not a real space. As a reminder, the clearance is a measure of how efficiently the substance is removed, as volume per time. One may read the AUC as concentration integrated over time. Read a low AUC as low exposure. By Cmax is commonly meant the peak of the concentration-time curve. One may read the half-life as how long it takes for the measured level to halve.
